Reference: patent US12282026B2, “Method for screening personalized intestinal environment-improving material and composition therefor” (HEM PHARMA INC., priority 2019, dated 2025)

Tested on: feces samples
Assay type: cell-based, human

With Clostridium butyricum [CB] the “change in amount of butyrate” value was “increases significantly”.
